Results reported in PubChem BioAssay (NCI).
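The compound was tested at five concentrations on cells cultured in 96-well plates, with a 48-hour exposure period. TGI marks complete inhibition of growth.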

How the values were obtained:
Assay in all cases: inhibition of tumour cell growth, NCI panel, 48 h
786-0 renal = test system: 786-0 renal
A498 renal = test system: A498 renal
A549 NSCLC = test system: A549 NSCLC
ACHN renal = test system: ACHN renal
BT-549 breast = test system: BT-549 breast
CAKI-1 renal = test system: CAKI-1 renal
CCRF-CEM leukemia = test system: CCRF-CEM leukemia
COLO 205 colon = test system: COLO 205 colon
DU-145 prostate = test system: DU-145 prostate
EKVX NSCLC = test system: EKVX NSCLC
HCC-2998 colon = test system: HCC-2998 colon
HCT-116 colon = test system: HCT-116 colon
HCT-15 colon = test system: HCT-15 colon
HL-60(TB) leukemia = test system: HL-60(TB) leukemia
HOP-62 NSCLC = test system: HOP-62 NSCLC
HOP-92 NSCLC = test system: HOP-92 NSCLC
HS 578T breast = test system: HS 578T breast
HT29 colon = test system: HT29 colon
IGROV1 ovarian = test system: IGROV1 ovarian
K-562 leukemia = test system: K-562 leukemia
KM12 colon = test system: KM12 colon
LOX IMVI melanoma = test system: LOX IMVI melanoma
M14 melanoma = test system: M14 melanoma
MALME-3M melanoma = test system: MALME-3M melanoma
MCF7 breast = test system: MCF7 breast
MDA-MB-231 breast = test system: MDA-MB-231 breast
MDA-MB-435 = test system: MDA-MB-435
MDA-N = test system: MDA-N
MOLT-4 leukemia = test system: MOLT-4 leukemia
NCI-H226 lung = test system: NCI-H226 lung
NCI-H23 lung = test system: NCI-H23 lung
NCI-H460 lung = test system: NCI-H460 lung
NCI-H522 lung = test system: NCI-H522 lung
NCI/ADR-RES ovarian = test system: NCI/ADR-RES ovarian
OVCAR-3 ovarian = test system: OVCAR-3 ovarian
OVCAR-4 ovarian = test system: OVCAR-4 ovarian
OVCAR-5 ovarian = test system: OVCAR-5 ovarian
OVCAR-8 ovarian = test system: OVCAR-8 ovarian
PC-3 prostate = test system: PC-3 prostate
RPMI-8226 leukemia = test system: RPMI-8226 leukemia
RXF 393 renal = test system: RXF 393 renal
SF-268 CNS = test system: SF-268 CNS
SF-295 CNS = test system: SF-295 CNS
SF-539 CNS = test system: SF-539 CNS
SK-MEL-2 melanoma = test system: SK-MEL-2 melanoma
SK-MEL-28 melanoma = test system: SK-MEL-28 melanoma
SK-MEL-5 melanoma = test system: SK-MEL-5 melanoma
SK-OV-3 ovarian = test system: SK-OV-3 ovarian
SN12C renal = test system: SN12C renal
SNB-19 CNS = test system: SNB-19 CNS
SNB-75 CNS = test system: SNB-75 CNS
SR leukemia = test system: SR leukemia
SW-620 colon = test system: SW-620 colon
T-47D breast = test system: T-47D breast
TK-10 renal = test system: TK-10 renal
U251 CNS = test system: U251 CNS
UACC-257 melanoma = test system: UACC-257 melanoma
UACC-62 melanoma = test system: UACC-62 melanoma
UO-31 renal = test system: UO-31 renal

For CCN(CC)c1ncnc2c1ncn2CCNC(CO)(CO)CO, the TGI (786-0 renal) was > 100 µM, the TGI (A498 renal) was > 100 µM and the TGI (A549 NSCLC) was > 100 µM. The TGI (ACHN renal) was > 100 µM, the TGI (BT-549 breast) was > 100 µM and the TGI (CAKI-1 renal) was > 100 µM. The TGI (CCRF-CEM leukemia) was > 100 µM, the TGI (COLO 205 colon) was > 100 µM and the TGI (DU-145 prostate) was > 100 µM. The TGI (EKVX NSCLC) was > 100 µM, the TGI (HCC-2998 colon) was > 100 µM and the TGI (HCT-116 colon) was > 100 µM. For the same compound, the TGI (HCT-15 colon) was > 100 µM, the TGI (HL-60(TB) leukemia) was > 100 µM and the TGI (HOP-62 NSCLC) was > 100 µM. The TGI (HOP-92 NSCLC) was > 100 µM, the TGI (HS 578T breast) was > 100 µM and the TGI (HT29 colon) was > 100 µM. The TGI (IGROV1 ovarian) was > 100 µM, the TGI (K-562 leukemia) was > 100 µM and the TGI (KM12 colon) was > 100 µM. For the same compound, the TGI (LOX IMVI melanoma) was > 100 µM, the TGI (M14 melanoma) was > 100 µM and the TGI (MALME-3M melanoma) was > 100 µM. The TGI (MCF7 breast) was > 100 µM, the TGI (MDA-MB-231 breast) was > 100 µM and the TGI (MDA-MB-435) was > 100 µM. For the same compound, the TGI (MDA-N) was > 100 µM, the TGI (MOLT-4 leukemia) was > 100 µM and the TGI (NCI-H226 lung) was > 100 µM. For the same compound, the TGI (NCI-H23 lung) was > 100 µM, the TGI (NCI-H460 lung) was > 100 µM and the TGI (NCI-H522 lung) was > 100 µM. The TGI (NCI/ADR-RES ovarian) was > 100 µM, the TGI (OVCAR-3 ovarian) was > 100 µM and the TGI (OVCAR-4 ovarian) was > 100 µM. The TGI (OVCAR-5 ovarian) was > 100 µM, the TGI (OVCAR-8 ovarian) was > 100 µM and the TGI (PC-3 prostate) was > 100 µM. For the same compound, the TGI (RPMI-8226 leukemia) was > 100 µM, the TGI (RXF 393 renal) was > 100 µM and the TGI (SF-268 CNS) was > 100 µM. The TGI (SF-295 CNS) was > 100 µM, the TGI (SF-539 CNS) was > 100 µM and the TGI (SK-MEL-2 melanoma) was > 100 µM. The TGI (SK-MEL-28 melanoma) was > 100 µM, the TGI (SK-MEL-5 melanoma) was > 100 µM and the TGI (SK-OV-3 ovarian) was > 100 µM. For the same compound, the TGI (SN12C renal) was > 100 µM, the TGI (SNB-19 CNS) was > 100 µM and the TGI (SNB-75 CNS) was > 100 µM. For the same compound, the TGI (SR leukemia) was > 100 µM, the TGI (SW-620 colon) was > 100 µM and the TGI (T-47D breast) was > 100 µM. The TGI (TK-10 renal) was > 100 µM, the TGI (U251 CNS) was > 100 µM and the TGI (UACC-257 melanoma) was > 100 µM. The TGI (UACC-62 melanoma) was > 100 µM and the TGI (UO-31 renal) was > 100 µM.

CN(CCN(C)CCN(C)C(=O)Cc1ccc(Cl)c(Cl)c1)CCN1CCCC1 was tested, and the TGI (786-0 renal) was 49.6 µM, the TGI (A498 renal) was 32 µM and the TGI (A549 NSCLC) was > 100 µM. The TGI (ACHN renal) was > 100 µM, the TGI (BT-549 breast) was 77.1 µM and the TGI (CAKI-1 renal) was > 100 µM. The TGI (CCRF-CEM leukemia) was 30.9 µM, the TGI (COLO 205 colon) was 33.8 µM and the TGI (DU-145 prostate) was > 100 µM. For the same compound, the TGI (EKVX NSCLC) was > 100 µM, the TGI (HCC-2998 colon) was 26 µM and the TGI (HCT-116 colon) was > 100 µM. For the same compound, the TGI (HCT-15 colon) was > 100 µM, the TGI (HL-60(TB) leukemia) was 61.3 µM and the TGI (HOP-62 NSCLC) was 86.1 µM. The TGI (HOP-92 NSCLC) was 24.1 µM, the TGI (HS 578T breast) was > 100 µM and the TGI (HT29 colon) was 27.3 µM. The TGI (IGROV1 ovarian) was > 100 µM, the TGI (K-562 leukemia) was 12.9 µM and the TGI (KM12 colon) was > 100 µM. The TGI (LOX IMVI melanoma) was 36.3 µM, the TGI (M14 melanoma) was > 100 µM and the TGI (MALME-3M melanoma) was 36.6 µM. The TGI (MCF7 breast) was 57.2 µM, the TGI (MDA-MB-231 breast) was 53.9 µM and the TGI (MDA-MB-435) was 21.6 µM. The TGI (MDA-N) was 25.1 µM, the TGI (MOLT-4 leukemia) was 29.1 µM and the TGI (NCI-H226 lung) was 61.3 µM. For the same compound, the TGI (NCI-H23 lung) was > 100 µM, the TGI (NCI-H460 lung) was 82.1 µM and the TGI (NCI-H522 lung) was 41.4 µM. The TGI (NCI/ADR-RES ovarian) was > 100 µM, the TGI (OVCAR-3 ovarian) was > 100 µM and the TGI (OVCAR-4 ovarian) was > 100 µM. The TGI (OVCAR-5 ovarian) was > 100 µM, the TGI (OVCAR-8 ovarian) was > 100 µM and the TGI (PC-3 prostate) was > 100 µM. The TGI (RPMI-8226 leukemia) was 22.8 µM, the TGI (RXF 393 renal) was 39 µM and the TGI (SF-268 CNS) was > 100 µM. For the same compound, the TGI (SF-295 CNS) was 41.5 µM, the TGI (SF-539 CNS) was 46.2 µM and the TGI (SK-MEL-2 melanoma) was 31.8 µM. For the same compound, the TGI (SK-MEL-28 melanoma) was 6.07 µM, the TGI (SK-MEL-5 melanoma) was 35.3 µM and the TGI (SK-OV-3 ovarian) was > 100 µM. The TGI (SN12C renal) was > 100 µM, the TGI (SNB-19 CNS) was > 100 µM and the TGI (SNB-75 CNS) was 73.3 µM. For the same compound, the TGI (SR leukemia) was 34.1 µM, the TGI (SW-620 colon) was > 100 µM and the TGI (T-47D breast) was 51.7 µM. It also gave a TGI (TK-10 renal) of 58.1 µM, a TGI (U251 CNS) of 41.3 µM and a TGI (UACC-257 melanoma) of 17.5 µM. For the same compound, the TGI (UACC-62 melanoma) was 16.6 µM and the TGI (UO-31 renal) was 3.93 µM.
